Tests used:
Type in all cases: functional, cell-based
COLO-792 = experiment: cells; settings: Homo sapiens
Description: SANGER: Inhibition of human COLO-792 cell growth in a cell viability assay.

Calu-3 = experiment: cells; settings: Homo sapiens;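 note: growth inhibition of human Calu-3 cells, determined with a cell viability assay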
Description: SANGER: Inhibition of human Calu-3 cell growth in a cell viability assay.

D-392MG = experiment: cells; settings: Homo sapiens
DMS-273 = experiment: cells; settings: Homo sapiens
Description: SANGER: Inhibition of human DMS-273 cell growth in a cell viability assay.

Daoy = experiment: cells; settings: Homo sapiens;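 note: daoy cell growth inhibition, read out as cell viability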
Description: SANGER: Inhibition of human Daoy cell growth in a cell viability assay.

H4 = experiment: cells; settings: Homo sapiens
Description: SANGER: Inhibition of human H4 cell growth in a cell viability assay.

HCC1954 = experiment: cells; settings: Homo sapiens;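 note: growth inhibition of human HCC1954 cells, read out with a cell viability assay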
Description: SANGER: Inhibition of human HCC1954 cell growth in a cell viability assay.

HCC 2998 = experiment: cells; settings: Homo sapiens;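 note: growth inhibition of human HCC2998 cells, measured with a cell viability read-out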
Description: SANGER: Inhibition of human HCC2998 cell growth in a cell viability assay.

HCC38 = experiment: cells; settings: Homo sapiens;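 note: cell viability assay on the human HCC38 cell line, with IC50 marking the concentration that inhibits cell growth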
Description: SANGER: Inhibition of human HCC38 cell growth in a cell viability assay.

HO-1-N-1 = experiment: cells; settings: Homo sapiens;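 note: growth inhibition of human HO-1-N-1 cells, read out with a cell viability assay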
Description: SANGER: Inhibition of human HO-1-N-1 cell growth in a cell viability assay.

HOS = experiment: cells; settings: Homo sapiens;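 note: growth inhibition of human HOS cells, read out with a cell viability assay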
Description: SANGER: Inhibition of human HOS cell growth in a cell viability assay.

HSC-2 = experiment: cells; settings: Homo sapiens;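 note: growth inhibition of human HSC-2 cells, read out by a cell viability assay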
Description: SANGER: Inhibition of human HSC-2 cell growth in a cell viability assay.

Huh-7 = experiment: cells; settings: Homo sapiens;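 note: HuH-7 cell growth inhibition, read out with a cell viability assay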
Description: SANGER: Inhibition of human HuH-7 cell growth in a cell viability assay.

HuP-T3 = experiment: cells; settings: Homo sapiens;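 note: HuP-T3 cell growth inhibition, read out with a cell viability assay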
Description: SANGER: Inhibition of human HuP-T3 cell growth in a cell viability assay.

HuP-T4 = experiment: cells; settings: Homo sapiens;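 note: cell viability assay measuring how much HuP-T4 cell growth is inhibited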
Description: SANGER: Inhibition of human HuP-T4 cell growth in a cell viability assay.

KP-N-YN = experiment: cells; settings: Homo sapiens;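 note: growth inhibition of KP-N-YN cells, read out with a cell viability assay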
Description: SANGER: Inhibition of human KP-N-YN cell growth in a cell viability assay.

KU-19-19 = experiment: cells; settings: Homo sapiens
Description: SANGER: Inhibition of human KU-19-19 cell growth in a cell viability assay.

MC-IXC = experiment: cells; settings: Homo sapiens;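 note: growth inhibition of MC-IXC cells, read out with a cell viability assay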
Description: SANGER: Inhibition of human MC-IXC cell growth in a cell viability assay.

MDA-MB-231 = experiment: cells; settings: Homo sapiens
Description: SANGER: Inhibition of human MDA-MB-231 cell growth in a cell viability assay.

MDA-MB-361 = experiment: cells; settings: Homo sapiens
MEL-HO = experiment: cells; settings: Homo sapiens
Description: SANGER: Inhibition of human MEL-HO cell growth in a cell viability assay.

MKN-1 = experiment: cells; settings: Homo sapiens;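 note: growth inhibition of human MKN1 cells, read out by a cell viability measurement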
Description: SANGER: Inhibition of human MKN1 cell growth in a cell viability assay.

NCI-H1793 = experiment: cells; settings: Homo sapiens;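 note: cell growth inhibition, read out by a cell viability assay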
Description: SANGER: Inhibition of human NCI-H1793 cell growth in a cell viability assay.

NCI-H2087 = experiment: cells; settings: Homo sapiens;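 note: growth inhibition determined with a cell viability readout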
Description: SANGER: Inhibition of human NCI-H2087 cell growth in a cell viability assay.

NCI-H358 = experiment: cells; settings: Homo sapiens;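 note: growth inhibition of NCI-H358 human cells, read out with a cell viability assay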
Description: SANGER: Inhibition of human NCI-H358 cell growth in a cell viability assay.

NCI-H460 = experiment: cells; settings: Homo sapiens;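 note: cell viability assay scoring growth inhibition of human NCI-H460 cells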
Description: SANGER: Inhibition of human NCI-H460 cell growth in a cell viability assay.

NCI-H522 = experiment: cells; settings: Homo sapiens;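 note: cell viability assay measuring growth inhibition of human NCI-H522 cells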
Description: SANGER: Inhibition of human NCI-H522 cell growth in a cell viability assay.

NCI-H630 = experiment: cells; settings: Homo sapiens;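 note: growth inhibition of NCI-H630 cells, read out with a cell viability assay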
Description: SANGER: Inhibition of human NCI-H630 cell growth in a cell viability assay.

NCI-H810 = experiment: cells; settings: Homo sapiens;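 note: IC50 reflects inhibition of cancer cell line growth, read out with a cell viability assay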
Description: SANGER: Inhibition of human NCI-H810 cell growth in a cell viability assay.

OAW-42 = experiment: cells; settings: Homo sapiens;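 note: growth inhibition of OAW-42 cells, read out with a cell viability assay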
Description: SANGER: Inhibition of human OAW-42 cell growth in a cell viability assay.

SK-OV-3 = experiment: cells; settings: Homo sapiens;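 note: growth inhibition of SK-OV-3 human cells, read out with a cell viability assay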
Description: SANGER: Inhibition of human SK-OV-3 cell growth in a cell viability assay.

SN12C = experiment: cells; settings: Homo sapiens;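 note: growth inhibition of human SN12C cells, measured by a cell viability assay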
Description: SANGER: Inhibition of human SN12C cell growth in a cell viability assay.

SW1710 = experiment: cells; settings: Homo sapiens;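 note: growth inhibition of SW1710 cells, determined with a cell viability assay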
Description: SANGER: Inhibition of human SW1710 cell growth in a cell viability assay.

SiHa = experiment: cells; settings: Homo sapiens;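 note: Viability-based readout of growth inhibition in SiHa cells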
Description: SANGER: Inhibition of human SiHa cell growth in a cell viability assay.

786-0 = experiment: cells; settings: Homo sapiens
Description: SANGER: Inhibition of human 786-0 cell growth in a cell viability assay.

8305C = experiment: cells; settings: Homo sapiens
Description: SANGER: Inhibition of human 8305C cell growth in a cell viability assay.

A2058 = experiment: cells; settings: Homo sapiens;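 note: reduction of A2058 cell growth, read out with a viability assay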
Description: SANGER: Inhibition of human A2058 cell growth in a cell viability assay.

A2780 = experiment: cells; settings: Homo sapiens;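 note: growth inhibition of A2780 cells, read out with a cell viability assay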
Description: SANGER: Inhibition of human A2780 cell growth in a cell viability assay.

A-427 = experiment: cells; settings: Homo sapiens;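 note: growth inhibition of human A-427 cells, read out by a cell viability assay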
Description: SANGER: Inhibition of human A427 cell growth in a cell viability assay.

A-431 = experiment: cells; settings: Homo sapiens;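 note: growth inhibition of A-431 cells, determined with a cell viability read-out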
Description: SANGER: Inhibition of human A431 cell growth in a cell viability assay.

AN3-CA = experiment: cells; settings: Homo sapiens;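 note: growth inhibition of human AN3-CA cells measured by a cell viability assay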
Description: SANGER: Inhibition of human AN3-CA cell growth in a cell viability assay.

ASPC1 = experiment: cells; settings: Homo sapiens;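 note: growth inhibition of AsPC-1 cells, read out with a cell viability assay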
Description: SANGER: Inhibition of human AsPC-1 cell growth in a cell viability assay.

BCPAP = experiment: cells; settings: Homo sapiens;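 note: growth inhibition of BCPAP cells, read out in a cell viability assay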
Description: SANGER: Inhibition of human BCPAP cell growth in a cell viability assay.

BEN = experiment: cells; settings: Homo sapiens;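 note: growth inhibition of the BEN cell line, read out with a cell viability assay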
Description: SANGER: Inhibition of human BEN cell growth in a cell viability assay.

VM-CUB-1 = experiment: cells; settings: Homo sapiens;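 note: cell viability assay measuring growth inhibition of the human VM-CUB-1 cell line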
Description: SANGER: Inhibition of human VM-CUB-1 cell growth in a cell viability assay.

YKG-1 = experiment: cells; settings: Homo sapiens;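 note: cell growth inhibition, read out with a viability assay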
Description: SANGER: Inhibition of human YKG-1 cell growth in a cell viability assay.

COR-L279 = experiment: SANGER: Inhibition of human COR-L279 cell growth in a cell viability assay.
Daudi = experiment: cells; settings: Homo sapiens;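 note: growth inhibition of Daudi cells, read out by a viability assay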
Description: SANGER: Inhibition of human Daudi cell growth in a cell viability assay.

EB-3 = experiment: cells; settings: Homo sapiens;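 note: human EB-3 cells, growth inhibition read out via a cell viability assay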
Description: SANGER: Inhibition of human EB-3 cell growth in a cell viability assay.

KMS-12-PE = experiment: cells; settings: Homo sapiens;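 note: growth inhibition of human KMS-12-PE cells, measured with a cell viability assay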
Description: SANGER: Inhibition of human KMS-12-PE cell growth in a cell viability assay.

L-540 = experiment: cells; settings: Homo sapiens;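 note: growth inhibition of the human L-540 cell line, read out with a viability assay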
Description: SANGER: Inhibition of human L-540 cell growth in a cell viability assay.

NALM-6 = experiment: cells; settings: Homo sapiens;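 note: growth inhibition of NALM-6 cells, read out with a cell viability assay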
Description: SANGER: Inhibition of human NALM-6 cell growth in a cell viability assay.

NCI-H1436 = experiment: cells; settings: Homo sapiens;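 note: growth suppression of human NCI-H1436 cells, determined with a cell viability readout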
Description: SANGER: Inhibition of human NCI-H1436 cell growth in a cell viability assay.

NCI-H2196 = experiment: cells; settings: Homo sapiens;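 note: cell viability assay used as the readout of growth inhibition in NCI-H2196 cells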
Description: SANGER: Inhibition of human NCI-H2196 cell growth in a cell viability assay.

NCI-H64 = experiment: cells; settings: Homo sapiens;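 note: growth inhibition of NCI-H64 cells, read out with a cell viability assay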
Description: SANGER: Inhibition of human NCI-H64 cell growth in a cell viability assay.

NCI-H716 = experiment: cells; settings: Homo sapiens;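 note: growth inhibition of human NCI-H716 cells, measured by a cell viability assay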
Description: SANGER: Inhibition of human NCI-H716 cell growth in a cell viability assay.

SCLC-21H = experiment: cells; settings: Homo sapiens;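 note: growth inhibition of cultured human SCLC-21H cells, read out with a cell viability assay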
Description: SANGER: Inhibition of human SCLC-21H cell growth in a cell viability assay.

SIMA = experiment: cells; settings: Homo sapiens;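 note: growth inhibition of SIMA cells, measured with a cell viability readout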
Description: SANGER: Inhibition of human SIMA cell growth in a cell viability assay.

SK-MM-2 = experiment: cells; settings: Homo sapiens;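 note: growth inhibition of human SK-MM-2 cells, read out with a cell viability assay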
Description: SANGER: Inhibition of human SK-MM-2 cell growth in a cell viability assay.

SNU-C1 = experiment: cells; settings: Homo sapiens;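 note: growth inhibition of SNU-C1 human cells, read out by a cell viability assay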
Description: SANGER: Inhibition of human SNU-C1 cell growth in a cell viability assay.

SR = experiment: cells; settings: Homo sapiens
Description: SANGER: Inhibition of human SR cell growth in a cell viability assay.

ST486 = experiment: SANGER: Inhibition of human ST486 cell growth in a cell viability assay.
23132-87 = experiment: cells; settings: Homo sapiens
Description: SANGER: Inhibition of human 23132-87 cell growth in a cell viability assay.

BOKU = experiment: cells; settings: Homo sapiens;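 note: growth inhibition of the human BOKU cell line, read out by a cell viability assay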
Description: SANGER: Inhibition of human BOKU cell growth in a cell viability assay.

TE-441-T = experiment: cells; settings: Homo sapiens
Description: SANGER: Inhibition of human TE-441-T cell growth in a cell viability assay.

CMK = experiment: cells; settings: Homo sapiens
Description: SANGER: Inhibition of human CMK cell growth in a cell viability assay.

Cn1c(=O)n(-c2ccc(C(C)(C)C#N)cc2)c2c3cc(-c4cnc5ccccc5c4)ccc3ncc21 [DACTOLISIB]
IC50 (COLO-792): 354 nM
IC50 (Calu-3): 72 nM
IC50 (D-392MG): 108 nM
IC50 (DMS-273): 60.9 nM
IC50 (Daoy): 36.7 nM
IC50 (H4): 12.7 nM
IC50 (HCC1954): 513 nM
IC50 (HCC 2998): 118 nM
IC50 (HCC38): 266 nM
IC50 (HO-1-N-1): 25.2 nM
IC50 (HOS): 21.1 nM
IC50 (HSC-2): 95.9 nM
IC50 (Huh-7): 18.4 nM
IC50 (HuP-T3): 1120 nM
IC50 (HuP-T4): 127 nM
IC50 (KP-N-YN): > 2000 nM
IC50 (KU-19-19): 31.1 nM
IC50 (MC-IXC): 70.1 nM
IC50 (MDA-MB-231): 105 nM
IC50 (MDA-MB-361): 61 nM
IC50 (MEL-HO): 24 nM
IC50 (MKN-1): 2.8 nM
IC50 (NCI-H1793): 12.8 nM
IC50 (NCI-H2087): 235 nM
IC50 (NCI-H358): 1960 nM
IC50 (NCI-H460): 81.2 nM
IC50 (NCI-H522): 248 nM
IC50 (NCI-H630): 913 nM
IC50 (NCI-H810): 278 nM
IC50 (OAW-42): 73.4 nM
IC50 (SK-OV-3): 100 nM
IC50 (SN12C): 90.6 nM
IC50 (SW1710): 18.7 nM
IC50 (SiHa): 329 nM
IC50 (786-0): 22.3 nM
IC50 (8305C): 41.9 nM
IC50 (A2058): 33.2 nM
IC50 (A2780): 106 nM
IC50 (A-427): 183 nM
IC50 (A-431): 90 nM
IC50 (AN3-CA): 5.56 nM
IC50 (ASPC1): 30.2 nM
IC50 (BCPAP): 18.7 nM
IC50 (BEN): 31.6 nM
IC50 (VM-CUB-1): 33.4 nM
IC50 (YKG-1): 53 nM

CC(=O)c1c(C)c2cnc(Nc3ccc(N4CCNCC4)cn3)nc2n(C2CCCC2)c1=O [PALBOCICLIB]
IC50 (COLO-792): > 4000 nM
IC50 (Calu-3): > 4000 nM
IC50 (D-392MG): > 4000 nM
IC50 (DMS-273): > 4000 nM
IC50 (Daoy): > 4000 nM
IC50 (H4): 1730 nM
IC50 (HCC1954): > 4000 nM
IC50 (HCC 2998): > 4000 nM
IC50 (HCC38): > 4000 nM
IC50 (HO-1-N-1): 963 nM
IC50 (HOS): 1350 nM
IC50 (HSC-2): > 4000 nM
IC50 (Huh-7): > 4000 nM
IC50 (HuP-T3): > 4000 nM
IC50 (HuP-T4): > 4000 nM
IC50 (KP-N-YN): > 4000 nM
IC50 (KU-19-19): > 4000 nM
IC50 (MC-IXC): > 4000 nM
IC50 (MDA-MB-231): 3820 nM
IC50 (MDA-MB-361): > 4000 nM
IC50 (MEL-HO): > 4000 nM
IC50 (NCI-H1793): > 4000 nM
IC50 (NCI-H2087): > 4000 nM
IC50 (NCI-H460): 3670 nM
IC50 (NCI-H522): > 4000 nM
IC50 (NCI-H630): > 4000 nM
IC50 (NCI-H810): > 4000 nM
IC50 (OAW-42): > 4000 nM
IC50 (SK-OV-3): > 4000 nM
IC50 (SN12C): 1010 nM
IC50 (SW1710): 2070 nM
IC50 (SiHa): > 4000 nM
IC50 (786-0): 2150 nM
IC50 (8305C): > 4000 nM
IC50 (A2780): > 4000 nM
IC50 (A-427): > 4000 nM
IC50 (A-431): > 4000 nM
IC50 (AN3-CA): > 4000 nM
IC50 (ASPC1): 253 nM
IC50 (BCPAP): 1660 nM
IC50 (BEN): > 4000 nM
IC50 (VM-CUB-1): > 4000 nM
IC50 (YKG-1): 1810 nM

C/C=C(/C)C(=O)O[C@H]1C(C)=C2[C@H]([C@@H]1OC(=O)CCCCCCC)[C@@](C)(OC(C)=O)C[C@H](OC(=O)CCC)[C@@]1(O)[C@H]2OC(=O)[C@@]1(C)O [THAPSIGARGIN]
IC50 (COLO-792): 59.6 nM
IC50 (COR-L279): 36.3 nM
IC50 (Calu-3): > 512 nM
IC50 (D-392MG): > 512 nM
IC50 (DMS-273): < 2 nM
IC50 (Daoy): 5.34 nM
IC50 (Daudi): 3.63 nM
IC50 (EB-3): 19 nM
IC50 (H4): 1.98 nM
IC50 (HCC1954): 24.9 nM
IC50 (HCC 2998): < 2 nM
IC50 (HCC38): 1.37 nM
IC50 (HO-1-N-1): > 512 nM
IC50 (HOS): 1.96 nM
IC50 (HSC-2): 2.99 nM
IC50 (Huh-7): < 2 nM
IC50 (HuP-T3): 18.1 nM
IC50 (HuP-T4): 1.3 nM
IC50 (KMS-12-PE): 297 nM
IC50 (KP-N-YN): 27 nM
IC50 (KU-19-19): 80 nM
IC50 (L-540): 75.2 nM
IC50 (MC-IXC): 37.6 nM
IC50 (MDA-MB-231): 0.557 nM
IC50 (MDA-MB-361): 4.73 nM
IC50 (MEL-HO): 1.9 nM
IC50 (MKN-1): 47.4 nM
IC50 (NALM-6): < 2 nM
IC50 (NCI-H1436): > 512 nM
IC50 (NCI-H1793): > 512 nM
IC50 (NCI-H2087): 0.546 nM
IC50 (NCI-H2196): > 512 nM
IC50 (NCI-H358): < 2 nM
IC50 (NCI-H460): 8.37 nM
IC50 (NCI-H522): 5.43 nM
IC50 (NCI-H64): 6.45 nM
IC50 (NCI-H716): > 512 nM
IC50 (NCI-H810): 7.14 nM
IC50 (OAW-42): 27 nM
IC50 (SCLC-21H): 1.69 nM
IC50 (SIMA): 38.4 nM
IC50 (SK-MM-2): 45.6 nM
IC50 (SK-OV-3): 2.64 nM
IC50 (SN12C): 16.6 nM
IC50 (SNU-C1): > 512 nM
IC50 (SR): > 512 nM
IC50 (ST486): 1.77 nM
IC50 (SW1710): < 2 nM
IC50 (SiHa): > 512 nM
IC50 (23132-87): 31.4 nM
IC50 (786-0): < 2 nM
IC50 (8305C): 2.7 nM
IC50 (A2058): 2.69 nM
IC50 (A2780): < 2 nM
IC50 (A-427): 2.12 nM
IC50 (A-431): 4.11 nM
IC50 (AN3-CA): < 2 nM
IC50 (ASPC1): > 512 nM
IC50 (BCPAP): < 2 nM
IC50 (BEN): 13.9 nM
IC50 (BOKU): > 512 nM
IC50 (TE-441-T): 48.8 nM
IC50 (VM-CUB-1): 22 nM
IC50 (YKG-1): 7.72 nM
IC50 (CMK): 33.3 nM
